Reference: patent publication US5710018A, “Mammalian influx peptide transporter” (Eli Lilly and Company, priority 1995, dated 1998)
Where a SMILES comes first, the peptide text is derived from it.

How the values were obtained:
control CHO-K1 cells = experiment: [14C]cephalexin uptake by control CHO-K1 cells transfected with plasmid pRc/RSV; assay type: in vitro ADME, Chinese hamster; details: Gly-L-Pro coincubation
[1] = biological target: T1, influx peptide transporter (Homo sapiens, UniProt Q12864); details: Clone 9; 50 mM Gly-L-Pro
T1 sequence (Q12864 23-832 K115E/E734D/E739A): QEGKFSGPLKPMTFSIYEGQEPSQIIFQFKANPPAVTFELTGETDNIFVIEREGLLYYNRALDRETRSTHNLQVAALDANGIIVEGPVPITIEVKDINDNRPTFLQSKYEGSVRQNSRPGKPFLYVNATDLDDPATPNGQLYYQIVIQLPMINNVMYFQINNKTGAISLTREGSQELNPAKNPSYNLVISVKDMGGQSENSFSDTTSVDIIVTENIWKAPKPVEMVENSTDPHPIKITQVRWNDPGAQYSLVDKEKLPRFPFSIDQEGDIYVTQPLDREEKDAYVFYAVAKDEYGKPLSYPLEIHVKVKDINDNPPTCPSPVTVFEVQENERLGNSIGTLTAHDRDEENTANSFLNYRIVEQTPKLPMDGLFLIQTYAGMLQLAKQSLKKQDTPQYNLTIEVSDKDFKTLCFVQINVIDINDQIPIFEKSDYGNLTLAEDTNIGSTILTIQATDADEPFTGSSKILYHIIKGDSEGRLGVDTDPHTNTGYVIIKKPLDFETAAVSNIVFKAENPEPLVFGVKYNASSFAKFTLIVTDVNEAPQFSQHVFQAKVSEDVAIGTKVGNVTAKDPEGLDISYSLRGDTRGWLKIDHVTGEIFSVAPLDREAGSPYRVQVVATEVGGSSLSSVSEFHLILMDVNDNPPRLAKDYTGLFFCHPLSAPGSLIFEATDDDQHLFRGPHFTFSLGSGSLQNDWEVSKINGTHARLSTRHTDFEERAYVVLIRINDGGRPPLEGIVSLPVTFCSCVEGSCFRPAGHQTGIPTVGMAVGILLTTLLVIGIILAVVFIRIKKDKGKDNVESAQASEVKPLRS
Protocol: Chinese hamster ovary cells (CHO-K1, ATCC CCL 61) were transfected with plasmid pPSJ179 using a calcium precipitation protocol described in the Stratagene mammalian transfection kit (Stratagene Catalog #200285). […] The calcium precipitation protocol transfection method was carried out as follows. Subconfluent CHO-K1 cells (100 mm culture dish, 1-day post plating) were incubated for 20 minutes at 37° C. with 20 μg of a calcium-precipitated DNA sample. The DNA sample was either plasmid pPSJ179 or, as control, plasmid pRc/RSV. Subsequently, the cells were grown for 3 days in F12 medium containing 10% fetal bovine serum (Hyclone Laboratories Inc., Logan, Utah 84321). Afterwards, the medium was replaced with growth medium containing the selection agent, G-418 sulfate at 300 μg/ml (Gibco, Grand Island, N.Y.) and cells were grown in a 3% CO2 incubator at 37° C. for 13 days. Colonies which were selected for further study were grown for selected time periods in the selection medium at 37° C. in a 5% CO2 incubator. Transfectants were evaluated for expression of the influx peptide transporter using an enzyme linked immunosorbent assay (ELISA) and monoclonal antibody reactive with the influx peptide transporter.
The transfected CHO-K1 cells (~0.5 to 1×10^5 cells per well) were grown for 3 days in a Costar 24-well plate as described above. […]

inhibition of uptake of 1 mM cephalexin [1]: inhibited
SMILES: NCC(=O)N1CCC[C@H]1C(=O)O [Gly-L-Pro] (H-Gly-Pro-OH)
inhibition of transport of 1 mM [14C]cephalexin (control CHO-K1 cells): not inhibited
